Tested on: lipodystrophy
Experiment: Observation of lipodystrophy signs and symptoms in patients using pentoxifylline for claudication
Assay type: in vivo, human
Description: It is believed that 80-85% of patients respond favorably with amelioration some or all of their symptoms.

[1] = diabetic HIV positive patients using pentoxifylline for claudication

CC(=O)CCCCn1c(=O)c2c(ncn2C)n(C)c1=O [pentoxifylline]
central fat deposition [1]: resolved or remitted | facial lines [1]: decreased and/or disappeared | leg vein prominence [1]: diminished or disappeared | signs and symptoms of lipodystrophy (diabetic HIV positive patients with peripheral vascular disease and intermittent claudication, using pentoxifylline for claudication): disappeared or were ameliorated | patients responding favorably with amelioration of some or all of their symptoms (patients using pentoxifylline, stated as 'It is believed'): 80-85%

Source: patent publication US20040209900A1, “Treatment of lipodystrophy (lipid redistribution syndrome)” (priority 2003, published 2004)
